Test results published in patent US20220107246A1, “NONCOVALENT TAGS AND RELATED METHODS FOR CYTOSOLIC DELIVERY OF MACROBIOMOLECULES” (University of Washington, priority 2019, published 2022).

How the values were obtained:
[1] = system: HeLa cells; test: Cellular delivery of tagged proteins, confocal microscopy; format: cell-based
Description: Purified Coomassie blue-cholesterol tag powder was reconstituted with ethanol/water (v/v: 4/1) to a concentration of 1.6 mM and stored at 4° C. as a stock. Before tagging, the concentration of all the protein solutions was diluted to 25 μM. […] The mixture was quickly mixed by pipetting. The mixture was incubated in a water bath (37° C.) for 8 min and sonicated in an ultrasonic water bath for 30 seconds. After another round of 8-min water bath incubation at 37° C., the protein was ready for delivery.
(§1) Cells were seeded on glass-bottom dishes (poly-D-lysine treated, MatTek Corp.) one day before the experiments. The cell monolayer was washed once with serum-free RPMI 1640 media and treated with 2 mL of RPMI 1640 media containing the tagged protein at a final concentration of 1 μM for 2 h. In the end, the cells were counter-stained with Hoechst 33342 and Alexa Fluor® 594 labeled Wheat Germ Agglutinin (WGA-AF594), respectively. The cells were washed three times with RPMI 1640 and imaged on a Zeiss LSM 710 microscope.
To study the delivery effect at low temperature (4° C.), cell monolayers were pre-equilibrated with cold media (RPMI 1640) for 10 minutes at 4° C. and then treated with the cold solution of tagged protein for 3 h. The cells were washed with cold media and imaged immediately.

[2] = system: PC-3, MDA-MB-231, SK-BR-3, DU-145, KB, and HEK-293T; test: Cellular delivery of aprotinin-tag complex in additional cell types; format: cell-based; settings: protein-tag complex; independent of the cell lines
Description: To further rule out the scenario that the tagged proteins initially enter cells via endocytosis followed by an efficient endosomal escape, the confocal microscopy experiment were performed again using the small protein, aprotinin, at 4° C., a temperature that blocks endocytic membrane trafficking. […] To evaluate the generality of this protein tagging technology, it was tested using […] additional cell types besides HeLa cells (i.e., PC-3, MDA-MB-231, SK-BR-3, DU-145, KB, and HEK-293T). Cells exposed to protein (aprotinin)-tag complex and then stained for protinin and WGA to show the cell boundary. […] Perhaps more importantly, protein transfection directly into the cytosol was also achieved in further experiments of primary cells including human adipose-derived stem cells, primary human dermal fibroblasts, and primary human umbilical vein endothelial cells (HUVEC) (not shown).
as §1, with “The cells were washed three times with RPMI 1640 and imaged on a Zeiss LSM 710 microscope.” left out

[3] = system: siRNA; test: Intercalation into siRNA monitored by fluorescence activation; format: binding; settings: compared with DNA (positive control)
Description: To test this new concept of cytosolic delivery, a conjugation-free methodology was investigated that incorporated small chemical tags to transform siRNA sufficiently hydrophobic, membrane-permeant, and self-deliverable. […] For a proof of concept, a number of existing oligonucleotide intercalators were tested, due to their potential to non-covalently attach the lipophilic moiety to siRNA. Although DNA intercalating dyes are well-studied and broadly available, selection of dsRNA intercalators is limited. […] DNA intercalating dyes apply a stretching force thus may or may not work on siRNA. Eight DNA intercalating dyes (molecular structures shown in FIG. 7) were evaluated utilizing a very convenient feature of these dyes, fluorescence activation upon intercalation into oligonucleotides. […] Therefore, ethidium was used in the following studies.
After 5-minute incubation, the mixture was diluted to 100 μL and the fluorescence was measured with the microplate reader. The fluorescence increment (J. B. Le Pecq, et al., DNA polyintercalating drugs: DNA binding of diacridine derivatives, Proc Natl Acad Sci USA 72(8) (1975) 2915-9; B. Gaugain, et al., DNA Bifunctional intercalators. 2. Fluorescence properties and DNA binding interaction of an ethidium homodimer and an acridine ethidium heterodimer, Biochemistry 17(24) (1978) 5078-88, each of which is incorporated herein by reference in its entirety), ΔIF, is the difference of fluorescence intensity of the tags in the presence or absence of siRNA.

[4] = system: siRNA; test: Gel electrophoresis of siRNA with intercalators; settings: high degree of intercalation
Description: FIGS. 2A-2H illustrate tag design and characterizations. (FIG. 2A) Intercalation of conventional DNA intercalators into siRNA monitored by fluorescence activation. Ethidium and acridinium show similar fluorescence activation in both DNA and RNA, unlike the others. (FIG. 2B) Gel electrophoresis of siRNA with acridinium and ethidium at low and high degree of intercalation. […] (FIG. 2C) Screening hydrophobic compounds (after linking with ethidium) for mRNA (PPIB) knockdown in PC-3 cells. The numbers represent the compounds illustrated in FIG. 2D. Steroids such as cholesterol and stigmasterol offer the highest RNAi efficiency. (FIG. 2D) Molecular structures of the 14 exemplary chemical tags tested in the current study. The hydrophobic compounds are linked to ethidium via a C6 spacer. (FIG. 2E) Dose response of gene knockdown using siRNA tagged with ethidium-cholesterol (left) in PC-3 cells. […]
To test this new concept of cytosolic delivery, a conjugation-free methodology was investigated that incorporated small chemical tags to transform siRNA sufficiently hydrophobic, membrane-permeant, and self-deliverable. […] Eight DNA intercalating dyes (molecular structures shown in FIG. 7) were evaluated utilizing a very convenient feature of these dyes, fluorescence activation upon intercalation into oligonucleotides. […]

[5] = system: HeLa cells; test: Cancer cell viability upon treatment with cytochrome c (LIVE/DEAD); format: cell-based; settings: Cyt c concentration of 2 μM for cell incubation
Description: (§2) HeLa cells were seeded onto glass-bottom dishes and cultured overnight. The cells were treated with cyt c (tagged or untagged) of various concentrations in culture media for 4 h, washed, and cultured in fresh media for another 48 h. Cell viability was measured using the dual-color LIVE/DEAD Viability/Cytotoxicity Kit following the manufacturer's instruction.

[6] = system: HeLa cells; test: Cyt c delivery and intracellular distribution (fluorescence imaging); format: cell-based
Description: For a proof-of-principle application in therapeutic protein delivery, we selected cytochrome c (Cyt c), an intracellular signaling protein for apoptosis, as a model cargo molecule. To track Cyt c delivery and intracellular distribution, it was labeled with a fluorescent dye (AF488, green). Cell nucleic were counterstained by Hoechst 33258 (blue). […] This is expected because Cyt c is a highly water-soluble macromolecule (m.w. ˜12 kDa) that cannot diffuse through the cell membrane by itself. Instead, a minute amount of Cyt c was uptaken by cells but trapped in endosomes/lysosomes (not shown). […] This study proves the feasibility and potential of specific targeting of certain cell signaling nodes inside cells with protein drugs.
as §2

[7] = system: HeLa cells; test: Toxicity study of CB and cholesterol tag (CellTiter-Blue); format: cell-based; settings: FIG. 14, HeLa cells
Description: Cytotoxicity of the tag was evaluated on HeLa cells. Briefly, cells were seeded in 96-well plates at 3,000 cells/well. CB, the tag, or tagged protein (BSA) was added at a series of concentrations from 10 μM to 3.3 nM. Untreated cells were used as control. After 48-h incubation, 10 μl of CellTiter-Blue reagent (Promega) was added to the wells and the culture was incubated for another 1 h. Cell viability was examined on a microplate reader (Tecan) at ex/em=560/590 nm and the toxicity was analyzed according to the manufacturer's protocol.

aprotinin
intracellular fluorescence pattern of cholesterol-tagged protein ([1]; HeLa cells, protein tagged with CB-cholesterol tag): bright and homogeneous fluorescence intracellular distribution | intracellular fluorescence pattern without the cholesterol tag ([1]; HeLa cells, same condition, no tag): only a few punctate fluorescent spots | uptake by cells at 4° C. ([1]; low tag/protein ratio): virtually confined to the cell membrane | uptake by cells at 4° C. ([1]; optimal tag/aprotinin ratio): bright and homogeneous intracellular fluorescence | uptake by cells at 4° C. ([1]; without the tag): negligible | cytosolic delivery in additional cell types [2]: Efficient cytosolic delivery

acridinium [reference compound]
fluorescence activation upon intercalation into siRNA [3]: strong binding with siRNA | unwinding of siRNA duplex [4]: unwound the siRNA double helix

Cyt c alone: cytochrome c, intracellular signaling protein for apoptosis, m.w. ~12 kDa, untagged
cell viability [5]: no sign of toxicity | intracellular fluorescence of AF488-labeled Cyt c [6]: minor dotted intracellular green fluorescence

CC[n+]1c(-c2ccccc2)c2cc(N)ccc2c2ccc(N)cc21 [ethidium, reference compound]
fluorescence activation upon intercalation into siRNA [3]: strong binding with siRNA | unwinding of siRNA duplex [4]: does not

CCOc1ccc(Nc2ccc(/C(=C3C=C/C(=[N+](/CC)Cc4cccc(S(=O)(=O)[O-])c4)C=C/3C)c3ccc(N(CC)Cc4cccc(S(=O)(=O)[O-])c4)cc3C)cc2)cc1.[Na+] [Coomassie blue]
biocompatibility [7]: biocompatible
